Biological target: T1, hTAS2R14 (Homo sapiens, UniProt Q9NYV8)
T1 construct: first 45 amino acids of rat somatostatin receptor type 3 (sst3 membrane-targeting tag) (N); expressed in transfected cells; host or cells: HEK293 T-Rex Flp-In cells stably expressing Gα16-gust44; induced with doxycycline
T1 sequence (Q9NYV8 1-317): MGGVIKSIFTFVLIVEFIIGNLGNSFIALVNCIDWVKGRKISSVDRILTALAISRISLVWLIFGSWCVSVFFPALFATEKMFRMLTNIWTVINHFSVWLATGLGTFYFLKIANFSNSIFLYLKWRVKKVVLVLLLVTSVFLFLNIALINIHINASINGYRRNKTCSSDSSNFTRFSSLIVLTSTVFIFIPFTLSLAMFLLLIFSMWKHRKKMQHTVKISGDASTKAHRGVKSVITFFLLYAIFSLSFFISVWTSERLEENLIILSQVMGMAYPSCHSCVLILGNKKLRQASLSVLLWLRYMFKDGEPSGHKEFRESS
Assay: Calcium assay of hTAS2R14 activation/inhibition in HEK293 T-Rex Flp-In cells
Type: cell-based
Settings: for IC50, Simultaneous / Threshold, Simultaneous: simultaneous addition, n.b. = no blocking; for IC50 / Threshold, Stepwise: stepwise addition
From the text: For functional expression of the human bitter taste receptor hTAS2R39, HEK293 T-Rex Flp-In cells (Invitrogen, San Diego, CA, USA) were used, stably expressing the chimeric G-protein α-subunit Gα16-gust44 (cloned into pcDNA4 (Invitrogen)) and the human bitter receptor genes for hTAS2R39 (cloned into pcDNA5/FRT (Invitrogen)). The bitter receptor gene contained a DNA sequence encoding the first 45 amino acids of rat somatostatin receptor type 3 at its 5′ end (the receptor expression was achieved according to [18] with exception of the HSV-tag), in order to improve membrane targeting of the receptor protein. The same procedure was applied for stable expression of hTAS2R14. Cells were maintained in Dulbecco's Modified Eagle's Medium (DMEM) and 10% (v/v) tetracycline-free FBS (both Lonza, Verviers, Belgium) supplemented with blasticidin (5 μg/mL), geneticin (400 μg/mL) and hygromycin (100 μg/mL) (all from Invitrogen). Cells were grown and maintained at 37 °C and 5% (v/v) CO2.
Cells were seeded into poly-L-lysine-coated (Sigma-Aldrich) 96-well plates (black wall, clear bottom, Greiner bio-one, Frickenhausen, Germany) at a density of 7*10^3 cells in 100 μL/well and cultured for 24 h. Transcription of the receptors was induced by adding 0.25 μg/mL doxycycline (Sigma-Aldrich). […] One hour after loading, cells were washed with Tyrode's buffer and taken up in Tyrode's buffer. Stock solutions of test compounds were prepared in DMSO and diluted to the appropriate concentration in Tyrode's buffer, not exceeding a DMSO concentration of 1% (v/v).
Two methods of compound administration were applied: simultaneous and stepwise addition of potential antagonist and agonist. The first 17 s before compound addition were used for baseline determination. For the simultaneous method, agonist and potential antagonist were pre-mixed, administered after 17 s, and fluorescence was measured for in total 90 s. For the stepwise method, after 17 s, the potential antagonist was added, fluorescence was measured until 120 s, and after 120 s the agonist was added and measured for another 120 s, in total 240 s. […] Each experiment was performed at least in duplicate in separate experiments (as indicated for each figure).
Data processing was done as reported previously. In brief, SoftMax Pro 5.4 software (Molecular Devices Corporation) was used to plot the fluorescence signals. The fluorescence value (ΔF/F0), representing receptor activity, was calculated by subtracting the baseline fluorescence (F0) prior to loading from the maximum fluorescence (F) after compound addition, divided by the signal of the baseline in order to normalize background fluorescence. Dose-response curves were established as non-linear regression curves using Graph Pad Prism (version 4 for Windows, Graph Pad Software, San Diego, CA, USA). Half-maximal effective concentrations (EC50) and half-maximal inhibitory concentrations (IC50) were calculated. Error bars reflect the standard error of the mean (SEM). Statistical analysis was performed in Graph Pad Prism (one-way ANOVA at 5% risk level, followed by Bonferroni's post hoc test).
Inhibition was indicated when [drawing 1] . In case of indicated inhibition, flavanones were applied at different concentrations, in order to test for dose-dependent inhibition, at the EC80 concentration of the agonist. […] To investigate the specificity of flavanones for inhibition of hTAS2R39 and hTAS2R14, another bitter taste receptor, hTAS2R16 (not known to be activated by flavonoids), was used in inhibition experiments ( File S3 ) towards its agonist salicin.

[1] = inhibition of hTAS2R14 response to 70 μM genistein
[2] = inhibition of hTAS2R14 response to 640 μM ECG

## COc1ccc2c(c1)C(=O)CC(c1ccc(F)cc1)O2 (stereo not shown) [Compound 6, 4′-Fluoro-6-methoxyflavanone]
640 μM ECG, simultaneous application
  blocking of hTAS2R14: no blocking
640 μM ECG, stepwise application
  inhibition of hTAS2R14: an inhibitory effect was observed
[1]
  IC50, Simultaneous: n.b.
  Threshold, Simultaneous: n.b.
  IC50: ~500 µM
  Threshold, Stepwise: 32 µM
[2]
  IC50, Simultaneous: n.b.
  Threshold, Simultaneous: n.b.
  IC50: 79 ± 25 µM
  Threshold, Stepwise: <8 µM

## COc1ccc2c(c1)C(=O)CC(c1ccccc1)O2 (stereo not shown) [Compound 11, 6-Methoxyflavanone]
[1]
  IC50, Simultaneous: n.b.
  Threshold, Simultaneous: n.b.
  IC50: 741 ± 143 µM
  Threshold, Stepwise: 500 µM
[2]
  IC50, Simultaneous: n.b.
  Threshold, Simultaneous: n.b.
  IC50: 447 ± 123 µM
  Threshold, Stepwise: 250 µM

## CCCN(CCC)S(=O)(=O)c1ccc(C(=O)O)cc1 [probenecid, p-(dipropylsulfamyl)benzoic acid, reference compound]
0.5 mM probenecid in Tyrode's buffer, agonist equol
  inhibition of hTAS2R14 by probenecid in the buffer: did not lead to inhibition

— PMC3983201, “6-Methoxyflavanones as Bitter Taste Receptor Blockers for hTAS2R39” (PLoS ONE, 2014)
